From paper PMC7076013 (Scientific Reports, 2020)

Tests used:
Format in all cases: cell-based, human
518A2 cells [1] = test: Fluorescence microscopy of DAPI-stained cells, 518A2; conditions: 518A2, 72 h
Experimental: (§1) It was observed that the wound in the control of the A375 cells decreased from 172 ± 69 μm to 127 ± 13 μm, compared to the treated cells where it stayed at 177 ± 32 μm. […] (Fig. 10A).To confirm this, the cell proliferation rate was determined after 72 h of incubation in the presence of 5 of the carboxyfluorescein succinimidyl ester (CFSE)-stained cells. […] These findings were further confirmed by fluorescence microscopy of 4′,6-diamidino-2-phenylindole (DAPI)-stained cells (Fig. 10C), for which predominantly large nuclei with scarce nucleoli characteristic for interphase were observed on treatment of A375 cells with 5[60]. In addition, sporadic oblong nuclei with condensed chromatin, typical for apoptosis, were also observed (25 ± 9%). On the other hand in the DAPI-stained 518A2 cells typical apoptotic shrunken nuclei and apoptotic bodies were dominant (60 ± 2%)[61]. The different modes of action on the two melanoma cell lines indicate that cell specific characteristics define the outcome of the treatment with 5. […] Recent data on the compensatory proliferation in response to induced apoptotic cell death in the tumor tissue even favor a nonaggressive approach in the therapy of advanced malignancy.

A375 cells [2] = test: CFSE cell proliferation, A375; conditions: A375, 72 h
Experimental: as §1, with “malignancy. […]” for “malignancy.”
(§2) To quantify cell division rate, cells were incubated for 10 min at 37 °C in the presence of […]
(§3) subsequentl y quantified using flow c ytomet r y. […]

518A2 cells [3] = test: Scratch (wound healing) test, 518A2; conditions: 518A2, IC50 dose, 48 h
Experimental: as §1, with “malignancy. […]” for “malignancy.”
as §2, §3

A375 cells [4] = test: Caspase activation (ApoStat), A375; conditions: A375, 48 h
Experimental: (§4) The results were ex pressed as a p er centage of a v alue obtained for the untr eated control cells that was arbitrarily set to be 100%. A non- linear regression analysis of obtained results was done b y using Gr aphPad Prism software to calculat e IC50 values.
3.3. AnnexinV-FITC/P I and caspase det ection.
A375 cells were treated with 5 for 48 h, trypsinized, and stained with AnnexinV-FITC (Ann) or propidium iodide (PI), or apostat as proposed by the manufacturer. C ells were anal yz ed b y C yFlow® Space Part ec u sing the PartecFloM ax ® software.
(§5) 3.4. Cell staining with CFSE.
as §2
(§6) subsequentl y quantified using flow c ytomet r y.
(§7) Cell motilit y and proliferation was anal yz ed using wound healing assa y. A375 and 518A2 cells were cultivated in 6-well plates until 80% of confluence in monola yers w as reached. Th e scratch was made using a steri le pipette tip which was drawn across the center of the wells. The scratch ed cell la yers w ere wash ed twice with fres h PBS to remove loose or damaged cells. Cells […]
(§8) 4% paraformald eh yde (PFA) for 10 min at room temperature . The wounds were digitally photographed using a Ni kon inverted microscope TS2 with 5 MPIX cam era.
(§9) 3.6. Measurement of intracellular nitric oxide

A375 cells [5] = test: Fluorescence microscopy of DAPI-stained cells, A375; conditions: A375, 72 h
Experimental: as §1

A375 cells [6] = test: Intracellular NO (DAF), A375; conditions: A375, 48 h; untreated 40 ± 7
Experimental: (§10) Given that analogue 5 is designed for NO release, the intracellular release of nitric oxide and production of reactive oxygen species (ROS)/reactive nitrogen species (RNS) was measured by means of redox-sensitive dyes — 4-amino-5-methylamino-2′,7′-difluorofluorescein diacetate (DAF) and dihydrorhodamine-123 (DHR) — after exposure for 48 h (Fig. 11). […] It is well documented that highly intensified production of ROS/RNS is connected with extreme cell damage and consequent cell death, whereas moderate ROS production is involved in the regulation of intracellular processes often involved in cell cycle arrest, proliferation, and differentiation[63],[64]. Apart from the moderate intracellular NO release, it was important to evaluate whether 5 released NO extracellularly. The production of NO from a nitrate group is a three-electron reduction process that can happen by a number of possible 2e^– and 1e^– pathways, commonly involving the initial liberation of a nitrite. A common method of detecting the release of NO in the extracellular compartment is the detection of nitrite ions by the Griess reaction, which quantifies the nitrite resulting from the oxidation of NO[66],[67]. […] Introduction of a nitrate moiety was also found to be beneficial in the case of rofecoxib. […]

518A2 cells [7] = test: Ann/PI apoptosis and caspase activation, 518A2; conditions: 518A2, 48 h
518A2 cells [8] = test: Intracellular NO (DAF), 518A2; conditions: 518A2, 48 h; untreated 44.9 ± 5.9
Experimental: as §10

A375 cells [9] = test: Light microscopy of A375 cultures (oval vs. fibroblast-like cells); conditions: A375, treated cells, 48 h
Excerpt: It is known that the A375 cell line has a heterogeneous morphology with a subpopulation of highly metastatic oval cells. […] Thus, it can be concluded that compound 5 affected the two populations in different manners with a stronger effect on the metastatic oval cells.

A375 cells [10] = test: Intracellular ROS/RNS (DHR), A375; conditions: A375, 48 h; untreated 22.3 ± 5
Experimental: as §10

A375 cells [11] = test: Ann/PI double staining apoptosis, A375
Experimental: as §4
3.3. AnnexinV-FITC/P I and caspase det ection. […]
C ells were anal yz ed b y
C yFlow® Space Part ec u sing the PartecFloM ax ® software.
as §5, §2, §6, §7, §8, §9

518A2 cells [12] = test: Intracellular ROS/RNS (DHR), 518A2; conditions: 518A2, 48 h; untreated 70.7 ± 5.5
Experimental: as §10

A375 cells [13] = test: Scratch (wound healing) test, A375; conditions: A375, treated cells, IC50 dose, 48 h; control decreased from 172 ± 69 to 127 ± 13
Experimental: as §1, with “malignancy. […]” for “malignancy.”
as §2, §3

## 4-[4-(methylnitrooxy)phenyl]-3-(1,2-dicarba-closo-dodecaboranyl)furan-2(5 H)-one [Compound 5]
518A2 cells [1]
  apoptotic shrunken nuclei and apoptotic bodies (DAPI): 60 ± 2%
A375 cells [2]
  elevation of % of undivided cells (CFSE) vs control: 38 ± 8%
518A2 cells [3]
  wound in scratch test: impossible to distinguish the edges of the wound
A375 cells [4]
  total caspase activity (ApoStat): only a slight enhancement of total caspase activity
A375 cells [5]
  oblong nuclei with condensed chromatin, typical for apoptosis (DAPI): 25 ± 9%
A375 cells [6]
  intracellular NO, mean fluorescence (DAF): 60.5 ± 9.1
518A2 cells [7]
  apoptosis (Ann/PI, caspase): strong caspase-dependent apoptosis
518A2 cells [8]
  intracellular NO, mean fluorescence (DAF): 97.7 ± 1.2
A375 cells [9]; control 46 ± 2.8
  % of oval cells: 28 ± 2.6%
A375 cells [9]; control 54 ± 3.2
  % of fibroblast-like cells: 72 ± 7.4%
A375 cells [10]
  ROS/RNS production, mean fluorescence (DHR): 32.67 ± 8
A375 cells [11]; A375, 48 h
  apoptosis (Ann/PI): did not promote significant apoptosis
A375 cells [11]; A375, 72 h total
  apoptosis after prolonged incubation: not accompanied by the appearance of apoptotic cells
518A2 cells [12]
  ROS/RNS production, mean fluorescence (DHR): 65.6 ± 0.9
A375 cells [13]
  wound width in scratch test: 177 ± 32 μm
